The source of these data is patent US6479528B1, “Methods for inhibiting or reversing tau filament formation polymerization” (Neuronautics, Inc., priority 2001, dated 2002).

“And” between values parts separate entries of the source, which are not always exact repeats. Equal values may be shown once. “Also recorded” adds a separate entry of the source. Read-outs that look alike come from different tables or passages of the source. A value given as a limit tells only on which side of the number the result lay.

One series has as its target T1, recombinant human htau40 (Homo sapiens, UniProt P10636).
T1 construct: synthetic straight filaments prepared from recombinant full-length tau; made in house
The experiment in a line: Thioflavin S fluorescence assay of arachidonic acid-induced tau polymerization. The format is biochemical. Here is the method:
(§1) Tau Polymerization. Purified isoforms of tau were polymerized as described previously (Wilson et al., Am. J. Pathol. 150: 2181 (1997); King et al., Biochemistry 38: 14851 (1999); King et al., J. Neurochem. 74: 1749 (2000)). Briefly, 2-8 mM (final concentration) htau40 or mutant htau40^C291A, C322A was incubated at room temperature in the presence or absence of 2-[[4-(dimethylamino)phenyl]azo]-6-methoxylbenzothiazole (compound I′) with polymerization buffer (10 mM 4-[2-hydroxyethyl]-1-piperazineethanesulfonic acid, 100 mM NaCl, and 5 mM DTT) containing 4 mM thioflavin S. Polymerization was induced by the addition of arachidonic acid (75-100 mM) and continued until analyzed by fluorescence or electron microscopy assays described below. When present, compound I′ final concentration varied from 0.05-2 mM. Control reactions were normalized for DMSO vehicle, which was limited to 5% in all reactions.
(§2) Fluorescence. Tau aggregation and disassembly were monitored by following thioflavin S fluorescence as described previously (King et al., 1999). Inhibitory activity of compound I′ was quantified by fitting the resultant data to the relationship
A=A0+(Amax−A0)/[1+10^(log IC50−logX)]
where A and A0 are blank-adjusted fluorescence in the presence and absence of inhibitor (at concentration X), respectively. IC50 values were calculated using the nonlinear regression algorithm of GRAPHPAD PRISM (GraphPad Software Inc.).
Inhibition of tau Polymerization. […] 31, 2000. 2-[[4-(Dimethylamino)phenyl]azo]-6-methoxylbenzothiazole (compound I′), an uncharged (at physiological pH) member of the azo dye family that includes Congo Red, was identified as having inhibitory activity against htau40.
The effect of compound I′ on polymerization of htau40 (2 mM) was quantified using a thioflavin S (2-4 mM) fluorescence assay (King et al., 1999).

Series [1] relates to Tau filaments isolated from AD brain. As to the kind of experiment: Disassembly of authentic tau filaments, electron microscopy. The note with it: 2 mM compound; 20 min incubation; filaments 0.03 mg/ml. The format is biochemical, human. The procedure: The ability of compound I′ (2 mM) to depolymerize authentic filaments (0.033 mg/ml) was assayed as above except that timepoints were limited to 0, 10, and 20 min post addition.
Transmission Electron Microscopy. Aliquots (50 ml) of polymerization and depolymerization reactions were removed, fixed with glutaraldehyde (2%), and adsorbed (1 min) onto 300 mesh formvar/carbon-coated copper grids (Electron Microscopy Sciences; Ft. Washington, Pa.). The resultant grids were washed with water, stained (1 min) with 2% uranyl acetate (Electron Microscopy Sciences), washed again with water, blotted dry, and viewed in a Phillips CM 12 microscope operated at 65 kV. Four to six random images from each experimental condition were captured on film at either 13,000× or 22,000× magnification, digitized, calibrated, and imported into Optimas 6.5.1 for quantitation of filament length and number as described previously (King et al., 2000). Individual filaments defined as any object greater than 50 nm in its long axis were counted manually. Counts from each of the 4 to 6 random images per condition are reported as an average±standard deviation for both filament length and number. Length distributions were quantified in 100 nm-wide bins, beginning with 50-150 nm lengths and continuing 151-250 nm, 251-350 nm, etc.
Authentic PHF Disassembly. […]

A further series addresses T2, Aβ1-40 (Homo sapiens, UniProt P05067).
T2 construct: Stock solutions of Aβ1-40 (Bachem; Philadelphia, Pa.) were prepared in DMSO; purchased Bachem
The experiment in a line: Aβ1-40 aggregation, turbidity at 350 nm. The class given is biochemical. The note with it: 20 μM (20 mM in the source) compound, stoichiometric with Aβ. Here is the method: Aβ1-40 Aggregation. Stock solutions of Aβ (1 mM) were prepared in DMSO and filtered (0.2 mM cutoff). Aggregation was initiated by diluting the Aβb stock solution to 20 mM final concentration in aggregation buffer (150 mM NaCl, 10 mM 2-[N-morpholino]ethanesulfonic acid, pH 6.2; final volume 100 mL). Turbidity resulting from Aβ aggregation in the presence (20 mM final concentration) and absence of compound I′ was monitored as a function of time in a Beckman DU640B spectrophotometer at 350 nm versus a DMSO vehicle blank (Snyder et al., Biophys. J. 67: 1216 (1994); Evans et al., Proc. Natl. Acad. Sci. USA 92: 763 (1995)). Cuvettes were rapidly inverted before each reading.
Selectivity of tau Polymerization Antagonism. […] To determine whether amyloid binding was accompanied by polymerization inhibitory activity, the ability of compound I′ to inhibit spontaneous Aβ1-40 assembly was examined. In the absence of ligand, Aβ1-40 (20 mM) polymerized spontaneously after a lag of 1 hour (FIG. 6).

Series [2] in a line: Charge state at physiological pH. The class given is physicochemical.
Another series addresses T3, htau40^C291A, C322A (Homo sapiens, UniProt P10636, C608A/C639A).
T3 construct: synthetic straight filaments prepared from recombinant full-length tau; made in house
The experiment in a line: Electron microscopy assay of tau filament formation. The format is biochemical. The note with it: 200 nM compound (1:40 molar ratio relative to tau), 8 µM htau40^C291A. The procedure: as §1, with “Control reactions were normalized for DMSO vehicle, which was limited to 5% in all reactions.” left out
Transmission Electron Microscopy. […] Four to six random images from each experimental condition were captured on film at either 13,000× or 22,000× magnification, digitized, calibrated, and imported into Optimas 6.5.1 for quantitation of filament length and number as described previously (King et al., 2000). Individual filaments defined as any object greater than 50 nm in its long axis were counted manually. […] Length distributions were quantified in 100 nm-wide bins, beginning with 50-150 nm lengths and continuing 151-250 nm, 251-350 nm, etc. […]

Series [3] has as its target T4, htau40^C291A, C322A filaments (Homo sapiens, UniProt P10636, C608A/C639A).
T4 construct: synthetic straight filaments prepared from recombinant full-length tau; made in house
As to the kind of experiment: Inhibitor-mediated depolymerization of preassembled synthetic tau filaments, electron microscopy time course. The format is biochemical. The procedure:
(§3) Tau Depolymerization. Solutions of purified htau40 or htau40^C291A, C322A (8 mM) were polymerized as described above for 3.5 hours. To assay dilution-mediated depolymerization, aliquots (50 ml) of reaction product were injected into a stirred quartz cuvette containing 1 ml of polymerization buffer with 4 mM thioflavin S and fluorescence decay followed as a function of time (room temperature). When present, arachidonic acid was 50 mM and tau was held at 2 mM.
To assay inhibitor-mediated depolymerization, compound I′ was added to polymerized tau to a final concentration of 0.2 mM into two separate microcentrifuge tubes. Aliquots were removed from each sample after 10, 20, 30, 45, 60 minutes incubation and subjected to fluorescence or electron microscopy assays described below. Control (no compound I′) reactions were normalized for DMSO vehicle, which was limited to 5% in all reactions.
Transmission Electron Microscopy. Aliquots (50 ml) of polymerization and depolymerization reactions were removed, fixed with glutaraldehyde (2%), and adsorbed (1 min) onto 300 mesh formvar/carbon-coated copper grids (Electron Microscopy Sciences; Ft. Washington, Pa.). […] Four to six random images from each experimental condition were captured on film at either 13,000× or 22,000× magnification, digitized, calibrated, and imported into Optimas 6.5.1 for quantitation of filament length and number as described previously (King et al., 2000). Individual filaments defined as any object greater than 50 nm in its long axis were counted manually. […] Length distributions were quantified in 100 nm-wide bins, beginning with 50-150 nm lengths and continuing 151-250 nm, 251-350 nm, etc.
To determine whether compound I′-mediated tau depolymerization proceeded by an endwise mechanism, htau40^C291A, C322A (4 mM) was polymerized over a 3.5 hour period after which time compound I′ (200 nM) or DMSO vehicle alone was added and filament lengths were measured over a 1 hour “chase” by electron microscopy. […]

The target in series [4] is T5, synthetic tau filaments (htau40) (Homo sapiens, UniProt P10636).
T5 construct: synthetic straight filaments prepared from recombinant full-length tau; made in house
As to the kind of experiment: Disassembly of preassembled synthetic tau filaments, dose response. The format is biochemical. The note with it: filaments assembled 3 hours; read-out: IC50, dose response on preassembled tau filaments (data not shown). The procedure: as §3
To assay inhibitor-mediated depolymerization, compound I′ was added to polymerized tau to a final concentration of 0.2 mM into two separate microcentrifuge tubes. Aliquots were removed from each sample after 10, 20, 30, 45, 60 minutes incubation and subjected to fluorescence or electron microscopy assays described below. […]
as §2
To determine whether compound I′ also could destabilize mature filaments and mimic the depolymerization observed in dilution experiments, tau filaments assembled in the presence of thioflavin S for 3 hours under standard conditions were incubated in the presence or absence of compound I′ (200 nM) and examined after various times by electron microscopy and fluorescence.

The next series has as its target Ab fibrils (Homo sapiens, UniProt P05067). The note with it: cited from earlier work.
Setting [5] is: approximate values given in the description, read-out: IC50, arachidonic acid polymerization of full length tau protein.
Where [6] appears, read: after 1 hour incubation with 200 nM compound.

T4 sequence (P10636 1-441 isoform P10636-8 C291A/C322A): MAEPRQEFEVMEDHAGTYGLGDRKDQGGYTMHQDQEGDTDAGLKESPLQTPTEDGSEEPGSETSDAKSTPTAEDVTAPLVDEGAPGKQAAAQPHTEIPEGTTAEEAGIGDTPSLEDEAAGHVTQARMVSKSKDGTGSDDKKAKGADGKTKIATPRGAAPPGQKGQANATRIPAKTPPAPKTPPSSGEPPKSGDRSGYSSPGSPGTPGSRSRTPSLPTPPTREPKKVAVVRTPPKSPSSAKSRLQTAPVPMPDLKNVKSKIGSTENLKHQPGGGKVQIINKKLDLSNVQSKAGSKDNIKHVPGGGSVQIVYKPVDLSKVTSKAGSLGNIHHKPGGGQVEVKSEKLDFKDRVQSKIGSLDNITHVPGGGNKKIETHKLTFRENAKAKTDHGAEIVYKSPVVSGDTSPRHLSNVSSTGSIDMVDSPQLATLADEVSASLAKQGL
T2 sequence (P05067 672-711 limits assumed): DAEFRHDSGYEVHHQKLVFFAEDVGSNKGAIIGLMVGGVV
T1 sequence (P10636 1-441 isoform P10636-8): as the sequence (P10636 1-441 isoform P10636-8 C291A/C322A) above, with A291C, A322C counted along it
T3 sequence (P10636 1-441 isoform P10636-8 C291A/C322A): as the sequence (P10636 1-441 isoform P10636-8 C291A/C322A) above
Sequence of Ab fibrils (P05067 672-713 limits assumed): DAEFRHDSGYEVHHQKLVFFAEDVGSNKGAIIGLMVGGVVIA
T5 sequence (P10636 1-441 isoform P10636-8): as the sequence (P10636 1-441 isoform P10636-8 C291A/C322A) above, with A291C, A322C counted along it

Regarding `O=C1Nc2ccccc2/C1=N/NC(=O)c1cc2ccccc2cc1O` [Compound III, 3-hydroxy-napthalene-2-carboxylic acid (2-oxo-1,2-dihydro-indol-3-ylidene)-hydrazide], on recombinant human htau40 (setting [5]), the IC50 (commonly the midpoint of a concentration-inhibition curve) is roughly 600 nM.
`CCN(CC)c1ccc(N=Nc2nc3ccc(OC)cc3s2)cc1` [2-[[4-(didethylamino)phenyl]azo]-6-methoxybenzothiazole]: the IC50 at recombinant human htau40 (setting [5]) was roughly 60 nM.
For the compound `Cc1cc(N=Nc2c(O)ccc3ccccc23)c(CCCC(=O)O)s1` [4-[3-(2-hydroxy-naphthalen-1-ylazo)-5-methyl-thiophen-2-yl]-butyric acid], at recombinant human htau40 (setting [5]), the IC50 was roughly 700 nM.
As for `CCC(=Cc1sc2ccc(OC)cc2[n+]1CCO)C=C1Sc2ccc(OC)cc2N1CCO` [3-(2-hydroxy-ethyl)-2-{2-[3-(2-hydroxyl-ethyl)-5-methoxy-3H-benzothiazol-2-ylidenemethyl]-but-1-enyl}-5-methoxy-benzothiazol-3-ium], on recombinant human htau40 (setting [5]), the concentration for half-maximal inhibition (IC50) is roughly 40 nM.
Turning to thioflavin S [reference compound], at recombinant human htau40 (concentration about EC50 of binding), the “effect on tau polymerization at the concentration required for filament binding” value is recorded as “not sufficient to inhibit or reverse tau polymerization”.
Turning to `COc1ccc2nc(N=Nc3ccc(N(C)c4ccccc4)cc3)sc2c1` [[4-(6-methoxy-benzothiazol-2-ylazo)phenyl]-methylphenyl amine], the half-inhibitory concentration (IC50) at recombinant human htau40 (setting [5]) was roughly 60 nM.
Regarding `COc1ccc2nc(/N=N/c3ccc(N(C)C)cc3)sc2c1` [compound I′, 2-[[4-(dimethylamino)phenyl]azo]-6-methoxylbenzothiazole], in series [1], the “total filament length, % of DMSO vehicle control” value was 14±9% and 10-50%. Besides, the “effect on Aβ1-40 polymerization / assembly kinetics” value at Aβ1-40 is “did not inhibit Aβ polymerization; also recorded: does not interfere with Aβ1-40 assembly; also recorded: did not alter Aβ1-40 assembly kinetics significantly”. Further, in series [2], the “charge at physiological pH” value is “uncharged”. Moreover, on htau40^C291A, C322A, the total filament number, % of control at 0.2 µM amounted to 14.2 ± 0.6%. Moreover, at htau40^C291A, C322A, the “total filament number, % of control values” is reported as 10-20%. The “initial first order rate of decrease of total filament length per field” value in series [3] (200 nM compound added to filaments polymerized 3.5 h) was determined as 0.042 min⁻¹. Also, in series [3] (setting [6]), the “total filament length, % of vehicle only controls” value was found to be 21±6%. For the same compound, the “total filament number, % of vehicle only controls” value in series [3] (setting [6]) came to 84±26%. Further, the IC50 in series [4] was 91 ± 13 nM; on recombinant human htau40 (setting [5]), < 100 nM and ~60 nM; on recombinant human htau40 (arachidonic acid-induced, 3.5 h, room temperature, % of DMSO vehicle control fluorescence, read-out: IC50, inhibition of htau40 polymerization (thioflavin S fluorescence)), 54 ± 6 nM. Also, the “IC50 as % of the molar concentration of arachidonic acid” value on recombinant human htau40 is less than 0.1%.
For the compound `Nc1ccc(-c2nc3ccc(-c4nc5ccc(N)cc5[nH]4)cc3[nH]2)cc1` [Ro 90-7501], at Ab fibrils, the “effect on Ab fibrils” value was “inhibit polymerization and promote disaggregation”.
For the compound `Cc1ccc(N=Nc2ccc(-c3ccc(N=Nc4ccc(C)c(C(=O)O)c4O)cc3)cc2)c(O)c1C(=O)O` [3-[4′-(3-carboxy-2-hydroxy4-methyl-cyclohexa-1,5-dienylazo)-biphenyl-4-ylazo]-2-hydroxy-6-methyl benzoic acid], the IC50 at recombinant human htau40 (setting [5]) was roughly 400 nM.
The same measure, in the same setting: the same measure for `CCN(CCO)c1ccc(N=Nc2nc3ccc(OC)cc3s2)cc1` [2-[[4-(N-ethyl-N-β-hydroxyethylamino)phenyl]azo]-6-methoxybenzothiazole]: roughly 60 nM.
